# Experimental data taken from patent US6462052B1, “Synergistic fungicide and/or bactericide composition” (Rhone-Poulenc Agro, priority 1998, dated 2002).
# System: Venturia inaequalis
# Experiment: Combination of pyrimethanil and dodine in controlling apple scab: curative treatment of inoculated apple plants
# Type: in vivo
# Conditions: for Practical efficacy: treated 3 days after inoculation, scored one month after inoculation; for Protection (in words): used alone
# Procedure: Example: Combination of pyrimethanil and dodine in controlling apple scab
# The fungicides evaluated are the following:
# The fungicidal compositions evaluated are the following:
# Apple plants (var. Melrose Golden) at the 5-6-leaf stage are inoculated with an aqueous suspension containing 150 000 spores of Venturia inaequalis/ml of inoculum. The plants are then placed in a climatic cell at 16-18° C., 100% RH (relative humidity) for 3 days. They are then treated with the fungicidal compositions at the doses cited above (12 repeats/dose) in a plant protection mixture at 500 l/ha and are again placed under the conditions described above. One month after the inoculation, scores are awarded. This consists in estimating the diseased leaf surface area in the two leaf stages sensitive to the disease and, by comparing with an untreated contaminated control, in defining the percentage efficacy according to the following formula:
# % practical efficacy=100×(% contamination Control−% contamination Trial)/% contamination Control
# The theoretical efficacy according to the Colby formula is calculated based on the following formula:
# % theoretical efficacy A+B=% practical eff. A+% practical eff. B−(% practical eff. A×% practical eff. B/100)
Molecule,"Practical efficacy (pyrimethanil 50 g/ha alone, apple plants var. Melrose Golden) [%]",Practical efficacy (pyrimethanil 100 g/ha alone) [%],Practical efficacy (pyrimethanil 200 g/ha alone) [%],Protection (in words),Practical efficacy (dodine 150 g/ha alone) [%],Practical efficacy (dodine 300 g/ha alone) [%],Practical efficacy (dodine 600 g/ha alone) [%]
Cc1cc(C)nc(Nc2ccccc2)n1 [pyrimethanil],65.4,65.4,61.5,partial protection,,,
dodecylguanidine monoacetate [dodine],,,,partial protection,30.8,76.9,75
